Values joined by “and” are separate entries in the source; they are usually repeats but may differ in a detail not shown here. Equal values may be shown once.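 Briefly, cells in 96-well plates were exposed to five compound concentrations for 48 h, and endpoints were estimated by linear interpolation. The concentration for 50% growth inhibition is given as GI50. The concentration for full growth arrest is given as TGI.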

Some test systems named below: 786-0 renal; CCRF-CEM leukemia; DU-145 prostate; HCT-116 colon; LOX IMVI melanoma; M14 melanoma; MDA-MB-435; SK-MEL-2 melanoma; SN12C renal; TK-10 renal.
Holding throughout (experiment): growth of human tumour cells (NCI), 48 h

As for `CCN1CCN(c2cc(C(=O)Nc3cccc(Nc4ccc5c(OC)cccc5n4)c3)cc(C(F)(F)F)c2)CC1`, the GI50 with 786-0 renal is 3.73 µM; with CCRF-CEM leukemia, 0.758 µM; in the assay with DU-145 prostate, 1.88 µM; in the assay on HCT-116 colon, 0.872 µM; in the assay on LOX IMVI melanoma, 0.781 µM; in the assay on M14 melanoma, 0.668 µM. Besides, the GI50 in the assay on MDA-MB-435 is 1.16 µM; with SK-MEL-2 melanoma, 5.3 µM; in the assay with SN12C renal it was 1.4 µM; in the assay on TK-10 renal, 3.47 µM. For the same compound, the TGI stood at 7.84 µM in the assay on 786-0 renal; 2.06 µM in the assay on CCRF-CEM leukemia; 7.33 µM in the assay with DU-145 prostate; 3.54 µM in the assay on HCT-116 colon; 1.96 µM in the assay with LOX IMVI melanoma; 1.65 µM with M14 melanoma. The TGI in the assay with MDA-MB-435 came out at 4.93 µM; with SK-MEL-2 melanoma it was 11 µM; in the assay with SN12C renal, 5.57 µM; in the assay with TK-10 renal, 8.02 µM.

Turning to `Cc1ccc2oc(=O)c3c(O)c4cccc(OC5OC(C)C6O[C@@H](c7ccccc7)OC6C5OC5OC(C)C(O)C(O)C5O)c4c4oc(=O)c1c2c34` (some centres undefined), the GI50 in the assay with 786-0 renal is 0.0447 µM; with HCT-116 colon, 0.0257 µM; with LOX IMVI melanoma, 0.0293 µM and 0.0483 µM; in the assay on M14 melanoma it was 0.409 µM; with SN12C renal, 0.251 µM; in the assay on TK-10 renal it was 0.461 µM. Moreover, the TGI with 786-0 renal is 1.09 µM and 1.91 µM; with CCRF-CEM leukemia it was 0.365 µM and 0.363 µM; with DU-145 prostate, 1.27 µM; in the assay with LOX IMVI melanoma, 0.538 µM and 1.51 µM; in the assay with M14 melanoma, 1.85 µM and 1.64 µM; with MDA-MB-435, 1.9 µM. The TGI is 1.68 µM in the assay with SK-MEL-2 melanoma; 1.76 µM and 4.73 µM with SN12C renal; 3.81 µM and 8.95 µM in the assay with TK-10 renal.

Turning to `Cc1nn(C)c2ncnc(N/N=C/c3cccc(O)c3O)c12`, the GI50 in the assay on 786-0 renal is 1.22 µM; with CCRF-CEM leukemia it was 0.179 µM; in the assay with DU-145 prostate, 0.558 µM; in the assay with HCT-116 colon it was 0.568 µM; with LOX IMVI melanoma, 0.238 µM; in the assay with M14 melanoma it was 0.259 µM. Besides, the GI50 in the assay on MDA-MB-435 is 0.609 µM; with SK-MEL-2 melanoma, 2.98 µM; in the assay on SN12C renal it was 0.481 µM; in the assay on TK-10 renal, 2.64 µM. Further, the TGI is 11.7 µM with 786-0 renal; greater than 52.8 µM with CCRF-CEM leukemia; greater than 100 µM in the assay on DU-145 prostate; greater than 100 µM with HCT-116 colon; 4.05 µM with LOX IMVI melanoma; 1.72 µM with M14 melanoma. The TGI was greater than 100 µM in the assay on MDA-MB-435, greater than 76.3 µM with SK-MEL-2 melanoma, greater than 100 µM with SN12C renal and greater than 100 µM with TK-10 renal.

In the case of `COc1cc(S(=O)(=O)Nc2nc(-c3ccc(N4C(=O)C(C)SC4c4ccccc4O)cc3)cs2)ccc1Cl` (centres undefined), the GI50 was 64.9 µM in the assay on 786-0 renal; 5.55 µM in the assay on CCRF-CEM leukemia; 42.5 µM in the assay with DU-145 prostate; 28.6 µM with HCT-116 colon; 52.1 µM in the assay on LOX IMVI melanoma; 38.6 µM with M14 melanoma. Further, the GI50 in the assay with MDA-MB-435 is 43.6 µM; in the assay with SK-MEL-2 melanoma, 38.7 µM; in the assay with SN12C renal, 47.4 µM; in the assay with TK-10 renal it was 97.6 µM. Also, the TGI with 786-0 renal, in the assay on CCRF-CEM leukemia, with DU-145 prostate, with HCT-116 colon, with LOX IMVI melanoma and in the assay on M14 melanoma was greater than 100 µM throughout. Moreover, the TGI in the assay with MDA-MB-435, in the assay with SK-MEL-2 melanoma, in the assay with SN12C renal and with TK-10 renal was greater than 100 µM in each case.

As for `COC1=C(OC)C(=O)C(C/C=C(\C)CC/C=C(\C)CC/C=C(\C)CC/C=C(\C)CC/C=C(\C)CC/C=C(\C)CC/C=C(\C)CC/C=C(\C)CC/C=C(\C)CCC=C(C)C)=C(C)C1=O`, the GI50 with 786-0 renal, in the assay on CCRF-CEM leukemia, with DU-145 prostate, in the assay on HCT-116 colon, in the assay on LOX IMVI melanoma and with M14 melanoma was greater than 100 µM in each case. Also, the GI50 with MDA-MB-435, in the assay with SK-MEL-2 melanoma, with SN12C renal and with TK-10 renal was greater than 100 µM throughout. Also, the TGI in the assay on 786-0 renal, in the assay with CCRF-CEM leukemia, in the assay with DU-145 prostate, in the assay on HCT-116 colon, with LOX IMVI melanoma and in the assay on M14 melanoma was greater than 100 µM each time. Further, the TGI with MDA-MB-435, in the assay with SK-MEL-2 melanoma, in the assay with SN12C renal and in the assay with TK-10 renal was greater than 100 µM throughout.

As to `CN1CCN(CCCOc2ccc3nc(Nc4ccc(F)c(F)c4)ccc3c2)CC1`, the GI50 in the assay on 786-0 renal is 1.62 µM; in the assay on CCRF-CEM leukemia, 1.95 µM; in the assay on DU-145 prostate it was 3.07 µM; in the assay on HCT-116 colon it was 1.49 µM; in the assay on LOX IMVI melanoma it was 1.53 µM; with M14 melanoma it was 1.74 µM. Also, the GI50 was 1.68 µM with MDA-MB-435, 1.91 µM in the assay on SK-MEL-2 melanoma, 2.97 µM in the assay with SN12C renal and 2 µM in the assay on TK-10 renal. Besides, the TGI in the assay on 786-0 renal was found to be 3.3 µM; in the assay with CCRF-CEM leukemia it was 11.6 µM; in the assay on DU-145 prostate, 11.5 µM; in the assay on HCT-116 colon, 3.17 µM; with LOX IMVI melanoma, 3.09 µM; in the assay on M14 melanoma, 3.68 µM. The TGI is 3.36 µM in the assay with MDA-MB-435, 3.8 µM in the assay on SK-MEL-2 melanoma, 11.8 µM in the assay on SN12C renal and 4.23 µM in the assay on TK-10 renal.

As to `COc1cc(/C=C/C(=O)CC(=O)/C=C/c2cc(OC)c(O)c(OC)c2)cc(OC)c1O`, the GI50 in the assay on 786-0 renal was 38.6 µM; in the assay on CCRF-CEM leukemia, 4.01 µM; with DU-145 prostate it was 20.7 µM; in the assay with HCT-116 colon, 17.2 µM; with LOX IMVI melanoma, 15.8 µM; in the assay on M14 melanoma, 10.4 µM. For the same compound, the GI50 with SK-MEL-2 melanoma is 4.24 µM; with SN12C renal it was 57.3 µM; with TK-10 renal, 34.2 µM. The TGI in the assay with 786-0 renal was 25 µM and > 100 µM; in the assay with CCRF-CEM leukemia, > 25 µM and 64.8 µM; with DU-145 prostate, 24.8 µM and > 100 µM; in the assay with HCT-116 colon it was 13.3 µM and > 100 µM; in the assay with LOX IMVI melanoma, 25 µM and 66.3 µM; in the assay on M14 melanoma, 25 µM and 28 µM. The TGI in the assay with MDA-MB-435 is 16.3 µM and 24 µM; in the assay on SK-MEL-2 melanoma it was 16.3 µM and 16.6 µM; in the assay with SN12C renal, 23.7 µM and > 100 µM; in the assay with TK-10 renal it was 25 µM and > 100 µM.

(Values after PubChem BioAssay (NCI).)
